Measurements: patent publication US12257246B2, “Composition of 2,4,6-trifluoro-n-[6-(1-methyl-piperidin-4-carbonyl)-pyridin-2-yl[-benzamide” (CoLucid Pharmaceuticals, Inc., priority 2009, dated 2025)

Tested on: rabbit saphenous vein
Experiment: Rabbit saphenous vein contraction

With CN1CCC(C(=O)c2cccc(NC(=O)c3c(F)cc(F)cc3F)n2)CC1 [Compound I, 2,4,6-trifluoro-N-[6-(1-methyl-piperidin-4-ylcarbonyl)-pyridin-2-yl]-benzamide] the vasoconstrictive activity was “not be significantly vasoconstrictive”.
